The source of these data is US7778782B1, “Peroxisome proliferation activated receptor alpha (PPARα) signatures” (priority 2002, dated 2010).

Marks after values point to notes of the source that are not given here.

The test system of the first assay is PPARα response signature. Description: Signature Projection Score (SPS) of liver gene expression against the PPARα response signature. The format is in vivo, male Sprague-Dawley rats. The settings on record: rat liver expression data in DrugMatrix database compared with PPARα response signature; normalised so highest training treatment = 100; *= p < 0.01, **= p < 0.001. How it is done:
Compound dosing was based on the acute dose LD50s recorded in published reference or literature sources. Duplicate rats were dosed at each of 3 doses: at LD50, one-half and one-fourth of LD50. The MTD (maximum tolerated dose) was then selected as the dose at which the animals […] 5-10% body weight during the 5-day range finding study. […] In addition, the clinical observations must show no or mild clinical signs during the whole of the range-finding study. At the next highest dose, signs and symptoms of adverse effects and exceeding those of the MTD should be seen to occur. Should these criteria not be met, the range-finding study is repeated using a modified dose range.
After determination of the MTD and FED for a compound, each compound was dissolved in a vehicle for administration on day 1 of the study (additional daily doses were stored as frozen aliquots from this initial formulation). Each compound was administered to three individual male Sprague-Dawley rats for each of the two doses (MTD and FED) for one of four different times (0.25 day, 1 day, 3 days, and 5 or 7 days), yielding a total of up to 24 animals per compound study. Vehicle choice was based on solubility of the compound, effect of food on adsorption, and the vehicles used in the literature reports examined during the FED selection investigations, described above. Generally, the route and vehicle in which the FED was defined are used. When there was a choice of routes and vehicles, oral routes were chosen over injection routes. Many compounds, especially oncolytics, are only administerable intravenously. In such cases, the compound was administered as an intravenous formulation into the tail vein. Orally administered compounds were given dissolved in either water, 1% carboxymethycellulose (CMC) or corn oil. Intravenously and intraperitoneally administered compounds were given in 0.9% saline. Subcutaneously administered compounds were given in corn oil. Animal body weights were determined at 1 day and, where appropriate, at 4 days, before necropsy, and clinical observations were made on a daily basis. Control animals were dosed with vehicle only. Three male animals were used for each dose and time combination used for the compound treatment.
Tissue harvest and handling: After the allocated treatment time, the tissues from the animals were harvested. […] All the tissues collected were divided to provide samples for histopathological analyses, and the remainder of each tissue was then snap-frozen. […] The parameters were measured using a Hitachi-911 clinical chemistry analysis instrument according to the manufacturer's instructions. The following blood constituents were measured: Blood Urea Nitrogen (BUN), Creatinine (CRE), Glucose (GLU), Alanine Transaminase (ALT), Aspartate Aminotransferase (AST), Alkaline Phosphatase (ALP), Total Bilirubin (TBI), Sodium (SOD), Potassium (POT), Chloride (CHL), Phosphorus (PHO), Total Protein (TPR), Albumin (ALB), Cholesterol (CHO), Creatine Phosphokinase (CPK), Lactate Dehydrogenase (LDH), Carbon Dioxide (CO2), Uric Acid (UA), and Lipase. […] The parameters were measured using a Baker 9000 blood cell analysis instrument according to the manufactures instructions. The following blood constituents were measured: Leukocyte count (WBC), Differential Leukocyte counts, Erythrocyte count (RBC), Hemoglobin concentration (HGB), Hematocrit (HCT), Mean Corpuscular Volume (MCV), Mean Corpuscular Hemoglobin (MCH), Mean Corpuscular Hemoglobin Concentration (MCC), Thrombocyte Count (PLC). Histopathology: Histopathological analyses of hematoxylin and eosin-stained tissue sections were performed and peer-reviewed by board-certified (Diplomate, American College of Veterinary Pathologists) veterinary pathologists.
As to `CC1=C(CC(=O)O)c2cc(F)ccc2/C1=C\c1ccc([S+](C)[O-])cc1` (centres unmarked), the “SPS (Sequence Projection Score)” value came out at 4.

Consider `C[C@]12CCC(=O)C=C1CC[C@@H]1[C@@H]2CC[C@@]2(C)[C@H]1CC[C@]2(C)O` [17-METHYLTESTOSTERONE], for which the “SPS (Sequence Projection Score)” value was 5. `CC(C)c1c(C(=O)Nc2ccccc2)c(-c2ccccc2)c(-c2ccc(F)cc2)n1CC[C@@H](O)C[C@@H](O)CC(=O)O` [ATORVASTATIN]: the “SPS (Sequence Projection Score)” value is reported as 22*. The same measure, in the same setting: next, `Cn1cnc([N+](=O)[O-])c1Sc1ncnc2nc[nH]c12` [AZATHIOPRINE]: 7. Turning to `C[C@]12CC[C@@H]3c4ccc(O)cc4CC[C@H]3[C@@H]1CC[C@@H]2O` [BETA-ESTRADIOL], the “SPS (Sequence Projection Score)” value is reported as 11. As for `CC(C)(Oc1ccc(CCNC(=O)c2ccc(Cl)cc2)cc1)C(=O)O` [BEZAFIBRATE, 2-(4-(2-((4-chlorobenzoyl)amino)ethyl)phenoxy)-2-methylpropanoic acid], the “SPS (Signature Projection Score)” value is listed as 102**. For the compound `CCCCC(CC)COC(=O)c1ccccc1C(=O)OCC(CC)CCCC` (centres unmarked) [BIS-2-ETHYLHEXYL PHTHALATE], the “SPS (Sequence Projection Score)” value is listed as 68**. Take `Oc1c(Cl)cc(Cl)cc1Sc1cc(Cl)cc(Cl)c1O` [BITHIONOL]: the “SPS (Sequence Projection Score)” value was found to be 20. Turning to `COCc1c(C(C)C)nc(C(C)C)c(/C=C/[C@@H](O)C[C@@H](O)CC(=O)O)c1-c1ccc(F)cc1` [CERIVASTATIN], the “SPS (Sequence Projection Score)” value worked out at 15. With `O=C(O)CCCc1ccc(N(CCCl)CCCl)cc1` [CHLORAMBUCIL], the “SPS (Signature Projection Score)” value came to 8.

Take `N.N.[Cl][Pt][Cl]` [CISPLATIN]: the “SPS (Sequence Projection Score)” value is 9. On to `CCOC(=O)C(C)(C)Oc1ccc(Cl)cc1` [CLOFIBRATE, 2-(p-chlorophenoxy)-2-methylpropionic acid ethyl ester], for which the “SPS (Sequence Projection Score)” value is listed as 99**. As for `Clc1ccccc1C(c1ccccc1)(c1ccccc1)n1ccnc1` [CLOTRIMAZOLE], the “SPS (Sequence Projection Score)” value was determined as 4. `CC(=O)O[C@]1(C(C)=O)CC[C@H]2[C@@H]3C=C(Cl)C4=CC(=O)[C@@H]5C[C@@H]5[C@]4(C)[C@H]3CC[C@@]21C` [CYPROTERONE ACETATE]: the “SPS (Sequence Projection Score)” value came out at 5. Still for that read-out and setting: next, `C[C@@H]1C[C@H]2[C@@H]3CCC4=CC(=O)C=C[C@]4(C)[C@@]3(F)[C@@H](O)C[C@]2(C)[C@@]1(O)C(=O)CO` [DEXAMETHASONE]: 9. The same measure, in the same setting: the value for `C#C[C@]1(O)CC[C@H]2[C@@H]3CCc4cc(O)ccc4[C@H]3CC[C@@]21C` [ETHINYLESTRADIOL] was 19.

As to `OC(Cn1cncn1)(Cn1cncn1)c1ccc(F)cc1F` [FLUCONAZOLE], the “SPS (Sequence Projection Score)” value is 4.

In the case of `Cc1ccc(C)c(OCCCC(C)(C)C(=O)O)c1` [GEMFIBROZIL, 5-(2,5-dimethylphenoxy)-2,2-dimethylpentanoic acid], the “SPS (Sequence Projection Score)” value is given as 65*. Still for that read-out and setting: the value for `O=P1(NCCCl)OCCCN1CCCl` (centres unmarked) [IFOSFAMIDE] was 9; that for `CC(=O)N1CCN(c2ccc(OCC3COC(Cn4ccnc4)(c4ccc(Cl)cc4Cl)O3)cc2)CC1` (centres unmarked) [KETOCONAZOLE] was 6; that for `Cc1oncc1C(=O)Nc1ccc(C(F)(F)F)cc1` [LEFLUNOMIDE] was 5. On the same count and under the same terms, the value for `CC#C[C@]1(O)CC[C@H]2[C@@H]3CCC4=CC(=O)CCC4=C3[C@@H](c3ccc(N(C)C)cc3)C[C@@]21C` [MIFEPRISTONE] was 7; that for `CN(C)C=O` [N,N-DIMETHYLFORMAMIDE] was 5. Consider `C#C[C@]1(OC(C)=O)CC[C@H]2[C@@H]3CCC4=CC(=O)CC[C@@H]4[C@H]3CC[C@@]21C` [NORETHINDRONE ACETATE], for which the “SPS (Sequence Projection Score)” value is 5. Same read-out and setting: next, `c1ccc2c(c1)Nc1ccccc1S2` [PHENOTHIAZINE]: 23*; `CC(=O)[C@H]1CC[C@H]2[C@@H]3CCC4=CC(=O)CC[C@]4(C)[C@H]3CC[C@]12C` [PROGESTERONE]: 5; `O=C(c1ccc(OCCN2CCCCC2)cc1)c1c(-c2ccc(O)cc2)sc2cc(O)ccc12` [RALOXIFENE]: 44*.

The same assay, now with this note: rat liver gene expression, in words.
With `CC(C)c1c(C(=O)Nc2ccccc2)c(-c2ccccc2)c(-c2ccc(F)cc2)n1CC[C@@H](O)C[C@@H](O)CC(=O)O` [ATORVASTATIN], the “similarity to the PPARα response signature” value was “significantly similar to the signature”. The same measure, in the same setting: next, `CCCCC(CC)COC(=O)c1ccccc1C(=O)OCC(CC)CCCC` (centres unmarked) [BIS-2-ETHYLHEXYL PHTHALATE]: “significantly similar to the signature”.

The same assay, now with this note: rat, in vivo.
`CC(C)n1c(/C=C/C(O)CC(O)CC(=O)O)c(-c2ccc(F)cc2)c2ccccc21` (centres unmarked) [FLUVASTATIN]: the “SPS (Signature Projection Score)” value is given as 35*. On to `CC[C@H](C)C(=O)O[C@H]1C[C@@H](C)C=C2C=C[C@H](C)[C@H](CC[C@@H]3C[C@@H](O)CC(=O)O3)[C@H]21` [LOVASTATIN], for which the “SPS (Signature Projection Score)” value was 45* and the “similarity to the PPARα response signature” value is “significantly similar to the signature”.
